Assay results taken from patent publication US20200197392A1, “COMPOSITIONS AND METHODS FOR TREATING TUBEROUS SCLEROSIS COMPLEX” (THE BRIGHAM & WOMEN'S HOSPITAL, INC., priority 2017, published 2020).
Read-outs that look alike come from different tables or passages of the source.

What was measured:
[1] = target: T1, CDK7 (Homo sapiens, UniProt P50613); conditions: read-out: cellular IC50; cited from earlier work
[2] = system: tumors in a TSC mouse model; assay: SY-1365 in a TSC mouse model; type: in vivo; conditions: tail vein injection 2×/week at 40 mg/kg for 4 weeks
Protocol: FIG. 16. Effect of SY-1365 on tumor volume in a TSC mouse model. SY-1365 was administered by tail vein injection 2×/week at 40 mg/kg for 4 weeks. Mice were then sacrificed and tumor assessment performed based on histology.

[3] = compared to THZ1; cited from earlier work
[4] = target: T1, CDK7; conditions: cited from earlier work
[5] = system: TSC-null cells; assay: ROS levels in TSC-null cells; type: cell-based; conditions: NAC 2 mM + THZ1 30 nM, 48 hr
From the text: (§1) FIGS. 8A-8G. Reduction of glutathione and increase in ROS in THZ1-treated TSC null cells. […] Arrow indicates glutathione. (n=3 samples) (FIG. 8B) Heat map showing the top 15 metabolites with greatest change in 621.101.TSC2− cells, with comparison to control and similarly-treated 621.101.TSC2-addback cells (n=3 samples). The scale is log 2 fold-change. […] Each data point represents the mean±SEM of three independent experiments (** p<0.01; *** p<0.001). […] Each data point represents the mean±SEM of three independent experiments (* p<0.05; ** p<0.01; *** p<0.001). […] Phase contrast images are at top. Cell death (%) is shown at bottom for these treatments as well as RAP (rapamycin 20 nM) and NAC (2 mM) for HCV.29.TSC1− and 621-101.TSC2− after 48 hours of treatment, measured by Trypan blue staining. Each data point represents the mean±SEM of three independent experiments (* p<0.05; ** p<0.01; *** p<0.001).
As GSH is the major intracellular antioxidant […], reactive oxygen species (ROS) were next measured in these cells.
In addition, to examine whether glutathione depletion was the proximate cause of apoptosis in THZ1-treated TSC-null cells, cells were treated with GSH reduced ethyl ester (GSH-MEE), a membrane-permeable derivative of GSH.

[6] = system: TSC-null cells; assay: Antioxidant rescue of THZ1-induced cell death (Trypan blue); type: cell-based; conditions: THZ1 30 nM, NAC 2 mM or GSH-MEE 2 mM, 48 hr
From the text: as §1
FIGS. 9A-9C. […] (n=3 samples,*** p<0.0005). […] Each data point represents the mean±SEM of three independent experiments (** p<0.01; *** p<0.001). (FIG. 9C) Cell death of MEF.TSC2− after 48 hours of treatment with indicated compounds was measured via Trypan blue staining assay. Each data point represents the mean±SEM of three independent experiments (* p<0.05; *** p<0.001). […]

[7] = system: HCV29 cells; assay: Steady state metabolite analysis; type: cell-based, human; conditions: 30 nM, 48 h
[8] = system: HCV29 cells (TSC1 null bladder cancer cell line); assay: 96-well plate proliferation assay (PicoGreen dsDNA); type: cell-based; conditions: Homo sapiens, HCV-29, 96 h; HCV29, 4 days; read-out: IC50, inhibition of proliferation
Protocol: (§2) FIG. 1. THZ1 selectively targets TSC-deficient cells. […] Cell viability was assessed after 4 days of treatment using Quant-it PicoGreen dsDNA. Data is represented as mean±SD.
(§3) Multiple studies were performed that support these hypotheses. Most studies to date have been performed on two pairs of cell lines: (i) HCV29, a TSC1 null human bladder cancer cell line, and a corresponding TSC1 addback derivative (TSC1-HCV29), and (ii) 621-101, a TSC2 null angiomyolipoma cell line, and the TSC2 addback derivative […].

[9] = system: 621-101 cells (TSC2 null angiomyolipoma cell line); assay: as above; type: cell-based; conditions: 96 h; 621-101, 4 days; read-out: IC50, inhibition of proliferation
Protocol: as §2, §3

[10] = system: TSC1-HCV29 cells; assay: Apoptosis by flow cytometry, propidium iodide and Annexin V; type: cell-based, human; conditions: 30 nM, 72 h
From the text: (§4) FIGS. 2A-2B. […] Apoptosis was monitored by flow cytometry using FITC-Annexin V. Each data point represents the mean±SEM of three independent experiments. *** p<0.001 (FIG. 2B) Immunoblot analyses of caspase-3 and actin.

[11] = system: HCV29 cells; assay: as above; type: cell-based, human; conditions: 30 nM, 72 h
From the text: as §4

[12] = system: TSC-addback cell lines; assay: 96 well plate growth assay, TSC-addback cell lines; type: cell-based; conditions: 120 h, 6 cell line pairs, 5 days
Protocol: (§5) FIGS. 4A-4F. […] Cell number was calculated by measurement of dsDNA content using PicoGreen after 5 days in 96-well plate assays. Each data point represents the mean of 4 measurements. SEM are indicated. […] Apoptotic cell death was quantified by propidium iodide (PI) staining and flow cytometry, and is shown as the percentage of cells that were PI positive. Each data point represents the mean±SEM of three independent experiments. * p<0.05; ** p<0.01; *** p<0.001. […] Beta-actin serves as a loading control.
(§6) FIGS. 5A-5D. […] Beta-actin serves as a loading control. […] Apoptotic cells were quantified by propidium iodide (PI) staining and flow cytometry. Each data point represents the mean±SEM of three independent experiments. * p<0.05; ** p<0.01; *** p<0.001. […] Beta-actin serves as a loading control.

[13] = system: HCV29 cells; assay: RNA-Seq gene expression, HCV29 vs TSC1-HCV29; type: cell-based, human; conditions: 30 nM THZ1-treated HCV29 vs THZ1-treated TSC1-HCV29, 6 hours
From the text: However, the inventors focused on expression of all genes involved in the synthesis of reduced glutathione.

[14] = system: HCV29 cells; assay: ROS levels; type: cell-based, human; conditions: THZ1 30 nM, rapamycin 20 nM or both
[15] = system: TSC1-HCV29 cells; assay: Cell cycle flow cytometry; type: cell-based, human; conditions: 30 nM, 24 h
[16] = system: kidney cystadenomas in Tsc2+/− A/J strain mice; conditions: THZ1 10 mg/kg IP twice a day 29 days; rapamycin 3 mg/kg 3 times per week
From the text: FIGS. 12A-12F. […] (FIG. 12A) Experimental plan. Tsc2+/− A/J strain mice develop kidney cystadenomas with 100% penetrance by 4 months of age with progressive tumor development. […] (FIG. 12B) Number of tumors per kidney in each treatment group (n=kidney number). ***p<0.001. (FIG. 12C) Tumor volume per kidney, with each data point corresponding to one kidney. (FIG. 12D) Renal cystadenoma histology in the treated mice. Representative tumor images are shown for each treatment cohort. Cystadenomas and tumors each are shown at 100×. […] (FIG. 12E) Ki-67 staining to assess cell proliferation in kidney sections from the treated mice. All images are at 100× magnification. Percentage of tumor cells with nuclear immunoreactivity of Ki-67 was scored from six random fields per section. ***p<0.001.
FIGS. 13A-13B. […]
Tsc2+/− A/J strain mice develop kidney cystadenomas by 4 months of age, and provide a native in vivo model that is […] human TSC patients, and is driven by spontaneous second hit events that lead to complete loss of Tsc2 expression and mTORC1 activation (Auricchio et al., 2012; Guo and Kwiatkowski, 2013; Woodrum et al., 2010). […] Rapamycin was dramatically effective in reducing tumor volume by about 99%, as assessed semi-quantitatively on H&E-stained sections (FIG. 12C), similar to what we have seen previously (Guo and Kwiatkowski, 2013). […]

[17] = system: HCV.29-TSC1− xenograft tumors; assay: HCV29-TSC1- xenograft model (Example 2); type: in vivo, mice; conditions: THZ1 10 mg/kg IP twice a day, rapamycin 3 mg/kg IP 3 days per week, or both
Protocol: FIGS. 14A-14D. […] Tumor size was measured every 3rd day using a digital caliper. […] This was quantified by counting four to six random fields per section. Scale bar=50 μm. **p<0.01, ***p<0.001. […] This was quantified by counting four to six random fields per section. Scale bar 50 μm. not shown (n=6) ***p<0.001. (FIG. 14D) Diagram showing glutathione synthetic pathway and ROS generation in TSC mutant cells. Top, TSC-deficient cells have hyperactive mTORC1, leading to increased ROS, NRF2 induction, and an increase in transcription of glutathione synthetic genes to yield more glutathione to buffer the increased ROS.
FIGS. 15A-15C. (FIG. 15A) Average body weight of TSC1-deficient HCV.29 xenograft mice in each treatment group. […] (n=4 tumors per group). ***p<0.001.
Tumor volumes were measured by calipers. […] Finally, in a cohort of xenograft mice, the treatments were discontinued and tumor growth was observed without intervention after the one month of treatment.

[18] = system: HCV29 cells; assay: Cell cycle flow cytometry; type: cell-based, human; conditions: 30 nM, 24 h
[19] = system: TSC-null cell lines; assay: 96 well plate growth assay, TSC-null cell lines; type: cell-based; conditions: 120 h, 6 cell line pairs, 5 days
Protocol: as §5, §6

[20] = system: TSC null cells; assay: NRF2, GCLC, GCLM, GSR protein expression; type: cell-based; conditions: 24 hours after THZ1 treatment
[21] = system: HCV29 xenograft tumors; assay: HCV29 xenograft tumors in Foxn1nu mice (Example 1); type: in vivo; conditions: 10 mg/kg IP twice daily, 30 days
From the text: FIG. 3. […] Treatment groups are indicated. […] Caliper measurements were used to calculate tumor volume.
HCV29 xenograft tumors were induced in immune-deficient Foxn1^nu mice by injection of 10^7 cells into each flank. […] Tumor size was monitored using calipers.

[22] = system: HCV29 cells; conditions: 30 nM THZ1, 1 mM GSH

T1 sequence (P50613 whole entry): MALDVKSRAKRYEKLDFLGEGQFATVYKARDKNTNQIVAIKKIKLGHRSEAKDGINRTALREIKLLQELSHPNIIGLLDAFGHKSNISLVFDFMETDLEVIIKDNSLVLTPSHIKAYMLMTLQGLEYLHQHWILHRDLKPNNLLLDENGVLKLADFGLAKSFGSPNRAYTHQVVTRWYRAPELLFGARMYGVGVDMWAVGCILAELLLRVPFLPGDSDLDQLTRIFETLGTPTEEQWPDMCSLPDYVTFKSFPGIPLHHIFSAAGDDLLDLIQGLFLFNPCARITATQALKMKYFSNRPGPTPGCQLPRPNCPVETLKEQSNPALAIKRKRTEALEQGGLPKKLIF
T1 sequence (P51946 whole entry partner): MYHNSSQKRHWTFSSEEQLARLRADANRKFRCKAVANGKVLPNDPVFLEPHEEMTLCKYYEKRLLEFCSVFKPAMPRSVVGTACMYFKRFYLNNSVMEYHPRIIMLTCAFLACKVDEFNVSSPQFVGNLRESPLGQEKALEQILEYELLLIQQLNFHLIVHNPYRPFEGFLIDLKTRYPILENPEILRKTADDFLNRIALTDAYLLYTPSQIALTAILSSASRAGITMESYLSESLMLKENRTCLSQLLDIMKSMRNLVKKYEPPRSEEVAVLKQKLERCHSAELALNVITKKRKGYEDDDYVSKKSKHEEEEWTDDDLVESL
T1 sequence (P51948 whole entry partner): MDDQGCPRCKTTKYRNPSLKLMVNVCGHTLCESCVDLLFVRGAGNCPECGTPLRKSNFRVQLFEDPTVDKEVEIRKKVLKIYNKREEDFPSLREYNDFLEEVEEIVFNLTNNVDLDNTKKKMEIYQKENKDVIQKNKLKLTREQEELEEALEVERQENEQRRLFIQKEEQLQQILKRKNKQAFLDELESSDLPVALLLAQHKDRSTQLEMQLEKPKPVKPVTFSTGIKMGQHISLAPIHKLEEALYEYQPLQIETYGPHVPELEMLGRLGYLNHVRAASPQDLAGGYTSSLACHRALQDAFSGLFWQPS

SMILES: CN(C)C/C=C/C(=O)Nc1ccc(C(=O)N[C@@]2(C)CCC[C@@H](Nc3ncc(Cl)c(-c4c[nH]c5ccccc45)n3)C2)nc1 [SY-1365]
- IC50 [1]: ~20 nM
- reduction in tumor volume (semi-quantitative, histology) [2]: 99%
- pharmacokinetic properties [3]: improved pharmacokinetic properties compared to THZ1
- selectivity for CDK7 over other CDKs (e.g., CDK9) [4]: high selectivity for CDK7 over other CDKs
- IC50 ([4]; read-out: enzymatic IC50): ~22 nM

SMILES: CC(=O)N[C@@H](CS)C(=O)O [NAC, N-acetyl-cysteine]
- ROS levels in THZ1 treated TSC-null cells with antioxidant [5]: restored ROS levels to near baseline
- cell death / viability of THZ1-treated TSC-null cells with co-treatment [6]: significantly reduced the cell death

SMILES: CN(C)C/C=C/C(=O)Nc1ccc(C(=O)Nc2cccc(Nc3ncc(Cl)c(-c4c[nH]c5ccccc45)n3)c2)cc1 [THZ1]
- Glutathione disulfide (GSS) levels reduced [7]: 65%
- S-adenosyl-L-homocysteine reduction in levels [7]: 87%
- glutathione (GSH) reduction in levels [7]: 78%
- IC50 [8]: ~30 nM
- IC50 [9]: ~30 nM
- Annexin V+ cells [10]: 2%
- Annexin V+ cells [11]: 37%
- IC50 ([12]; read-out: IC50 range, addback lines): 190 to 660 nM
- IC50 ([12]; read-out: median IC50, addback lines): 475 nM
- GCLC mRNA levels reduction [13]: 82%
- GCLM mRNA levels reduction [13]: 68%
- GSR mRNA levels reduction [13]: 86%
- ROS levels increase [14]: 2.5 fold
- cells arrested in G2/M-phase [15]: 5.5%
- reduction of tumor volume (semi-quantitative, H&E sections) [16]: about 99%
- body weight and toxicity [17]: No effect on body weight or other evidence of toxicity
- cells arrested in G2/M-phase [18]: 21%
- IC50 ([19]; read-out: IC50 range, TSC-null cell lines): 16 to 39 nM
- IC50 ([19]; read-out: median IC50, TSC-null cell lines): 26.5 nM
- reduction in expression of each protein (NRF2, GCLC, GCLM, GSR) [20]: > 90%
- body weight and apparent toxicities [21]: did not affect body weight or cause other apparent toxicities

SMILES: CO[C@H]1C[C@@H]2CC[C@@H](C)[C@@](O)(O2)C(=O)C(=O)N2CCCC[C@H]2C(=O)O[C@H]([C@H](C)C[C@@H]2CC[C@@H](O)[C@H](OC)C2)CC(=O)[C@H](C)/C=C(\C)[C@@H](O)[C@@H](OC)C(=O)[C@H](C)C[C@H](C)/C=C/C=C/C=C/1C [rapamycin]
- reduction of tumor volume (semi-quantitative, H&E sections) [16]: about 99%
- body weight and toxicity [17]: No effect on body weight or other evidence of toxicity

SMILES: N[C@@H](CCC(=O)N[C@@H](CS)C(=O)NCC(=O)O)C(=O)O [GSH, glutathione]
- THZ1-induced HCV29 cell death with GSH co-treatment [22]: markedly reduced

SMILES: CCOC(=O)CNC(=O)[C@H](CS)NC(=O)CC[C@H](N)C(=O)O [GSH-MEE, GSH reduced ethyl ester]
- cell death / viability of THZ1-treated TSC-null cells with co-treatment [6]: rescued the viability
